From the NIST ThermoML archive (doi:10.1016/j.jct.2016.10.009)

Experiment: xn = mol fraction of the nth substance listed
Settings: Liquid, Vibrating tube method, x1 = 1

CCC(C)O (centres undefined) [butan-2-ol] + CC(C)OC(C)C
mass density [kg/m3]
Settings | 293.15 K | 298.15 K | 313.15 K | 333.15 K | 353.19 K | 373.24 K | 393.28 K
100 kPa | 806.7 | 802.6 | 789.6 | 770.8 | 750.3 | – | –
1000 kPa | 807.4 | 803.3 | 790.3 | 771.8 | 751.4 | 729.1 | 704.8
5000 kPa | 810.4 | 806.4 | 793.7 | 775.7 | 756 | 734.5 | 711.3
10000 kPa | 814 | 810.1 | 797.8 | 780.3 | 761.3 | 740.8 | 718.8
15000 kPa | 817.4 | 813.7 | 801.6 | 784.7 | 766.4 | 746.6 | 725.6
20000 kPa | 820.7 | 817 | 805.3 | 788.9 | 771 | 751.9 | 731.7
25000 kPa | 823.9 | 820.2 | 808.6 | 792.7 | 775.4 | 757 | 737.4
30000 kPa | 826.9 | 823.4 | 812.1 | 796.4 | 779.5 | 761.6 | 742.7
35000 kPa | 829.8 | 826.4 | 815.3 | 800 | 783.5 | 766.1 | 747.8
40000 kPa | 832.7 | 829.2 | 818.4 | 803.5 | 787.2 | 770.3 | 752.5
45000 kPa | 835.4 | 832 | 821.3 | 806.6 | 790.8 | 774.4 | 757
50000 kPa | 838.1 | 834.7 | 824.3 | 809.8 | 794.4 | 778.1 | 761.2
55000 kPa | 840.6 | 837.4 | 827.1 | 812.8 | 797.7 | 781.8 | 765.4
60000 kPa | 843.2 | 839.9 | 829.8 | 815.8 | 801 | 785.3 | 769.2
65000 kPa | 845.6 | 842.4 | 832.5 | 818.7 | 804.1 | 788.8 | 772.9
70000 kPa | 848 | 844.8 | 835 | 821.4 | 807.2 | 792.1 | 776.6
80000 kPa | 852.6 | 849.5 | 839.9 | 826.8 | 812.9 | 798.4 | 783.4
90000 kPa | 857.1 | 854.1 | 844.7 | 831.9 | 818.3 | 804.3 | 789.8
100000 kPa | 861.2 | 858.3 | 849.1 | 836.7 | 823.5 | 809.8 | 795.8
110000 kPa | 865.3 | 862.4 | 853.5 | 841.3 | 828.5 | 815.1 | 801.5
120000 kPa | 869.2 | 866.3 | 857.6 | 845.6 | 833.1 | 820.1 | 806.8
130000 kPa | 873 | 870.1 | 861.5 | 849.9 | 837.6 | 824.9 | 811.9
140000 kPa | 876.6 | 873.9 | 865.4 | 853.9 | 842 | 829.5 | 816.8
